This passage reports IC50 results from US11440913B2, “Aminoimidazopyridazines as kinase inhibitors” (BRISTOL-MYERS SQUIBB COMPANY, priority 2017, dated 2022).

In test [1] the target is His-GST-TVMV-hRIPK1(1-324) (Homo sapiens (Human), UniProt Q13546). In words: RIPK1 HTRF Binding Assay. The settings on record: HTRF binding, 1 h at rt; read-out: RIPK1 (IC50). The method, boiled down:
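HTRF probe-displacement binding: 1 nM His-GST-TVMV-hRIPK1(1-324) (baculovirus construct), 90.6 nM probe, 0.2 nM anti-GST-Tb in 20 mM HEPES, 10 mM MgCl2, 0.015% Brij-35, 4 mM DTT, 0.05 mg/mL BSA. Incubated 1 h at rt; FRET 520/495 nm ratio, inhibition relative to DMSO-only wells.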
Background: Time-resolved FRET reads energy transfer from a long-lived donor to a nearby acceptor.

Test [2] concerns MLKL phosphorylation in HT29-L23 human colorectal adenocarcinoma cells. In words: MLKL Phosphorylation High-Content Assay. Type of test: cell-based. To be noted: 6 h, necroptosis induced with TNFα, SMAC mimetic and Z-VAD, read-out: pMLKL (IC50). The method, boiled down:
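HT29-L23 cells pretreated 30 min at 37 °C with compound (6.25 to 0.106 μM final), then necroptosis induced with TNFα 35 ng/mL, SMAC mimetic 700 nM and Z-VAD 140 nM for 6 h. Fixed cells immunostained for MLKL pS358 and imaged; IC50 and Ymax from 4-parameter logistic fit.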

Structures can show the parent of a compound that is named as a salt. Where two headings read alike, the source gives them in different places.

Chain of His-GST-TVMV-hRIPK1(1-324) (Q13546 1-324): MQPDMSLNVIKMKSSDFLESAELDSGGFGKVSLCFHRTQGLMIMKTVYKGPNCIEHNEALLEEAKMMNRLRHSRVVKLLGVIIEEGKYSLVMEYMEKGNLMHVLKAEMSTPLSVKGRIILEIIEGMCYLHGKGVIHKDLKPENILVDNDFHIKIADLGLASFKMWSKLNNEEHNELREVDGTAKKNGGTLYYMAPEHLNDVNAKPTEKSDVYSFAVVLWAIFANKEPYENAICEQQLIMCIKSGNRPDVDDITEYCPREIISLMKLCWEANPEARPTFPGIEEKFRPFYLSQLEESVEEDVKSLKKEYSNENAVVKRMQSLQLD

The IC50 is the concentration needed to halve the response being measured. Turning to `CC(=O)Nc1cn2nc(-c3cc(C(=O)NCc4cc(OC(F)(F)F)ccc4F)c(C)nc3C)ccc2n1` [Example 81, 5-{2-acetamidoimidazo[1,2-b]pyridazin-6-yl}-N-{[2-fluoro-5-(trifluoromethoxy)phenyl]methyl}-2,6-dimethylpyridine-3-carboxamide], the values for the IC50 in test [1] and in test [2] (Homo sapiens) were 5 nM and 2 nM, respectively.
The corresponding values for `CC(=O)Nc1cn2nc(-c3cc(C(=O)NCC[C@H](O)c4ccc(Cl)cc4)c(C)nc3C)ccc2n1` [Example 82, N-[(3S)-3-(4-chlorophenyl)-3-hydroxypropyl]-5-{2-acetamidoimidazo[1,2-b]pyridazin-6-yl}-2,6-dimethylpyridine-3-carboxamide] are 21 nM and 18 nM.
`CC(=O)Nc1cn2nc(-c3cc(C(=O)NCc4ccccc4OCC4CC4)c(C)nc3C)ccc2n1` [Example 83, N-{[2-(cyclopropylmethoxy)phenyl]methyl}-5-{2-acetamidoimidazo[1,2-b]pyridazin-6-yl}-2,6-dimethylpyridine-3-carboxamide]: the figures for the IC50 in test [1] and in test [2] were 5 nM and 7 nM, respectively.
In the case of `CC(=O)Nc1cn2nc(-c3cc(C(=O)NCc4cccnc4OCC4CCCC4)c(C)nc3C)ccc2n1` [Example 84, N-{[2-(cyclopentylmethoxy)pyridin-3-yl]methyl}-5-{2-acetamidoimidazo[1,2-b]pyridazin-6-yl}-2,6-dimethylpyridine-3-carboxamide], the IC50 in test [1] is 19 nM; in test [2] (Homo sapiens), 26 nM.
The corresponding values for `CC(=O)Nc1cn2nc(-c3cc(C(=O)NCc4ccccc4OCC4CCCC4)c(C)nc3C)ccc2n1` [Example 85, N-{[2-(cyclopentylmethoxy)phenyl]methyl}-5-{2-acetamidoimidazo[1,2-b]pyridazin-6-yl}-2,6-dimethylpyridine-3-carboxamide] are 4 nM and 12 nM.
The corresponding values for `CC(=O)Nc1cn2nc(-c3cc(C(=O)NCc4cc(F)cc(F)c4OCC4CC4)c(C)nc3C)ccc2n1` [Example 87, N-{[2-(cyclopropylmethoxy)-3,5-difluorophenyl]methyl}-5-{2-acetamidoimidazo[1,2-b]pyridazin-6-yl}-2,6-dimethylpyridine-3-carboxamide] are 3 nM and 3 nM.
The corresponding values for `CC(=O)Nc1cn2nc(-c3cc(C(=O)NCc4cccc(OC(F)(F)F)c4)c(C)nc3C)ccc2n1` [Example 88, 5-{2-acetamidoimidazo[1,2-b]pyridazin-6-yl}-2,6-dimethyl-N-{[3-(trifluorometh-oxy)phenyl]methyl}pyridine-3-carboxamide] are 25 nM and 42 nM.
As for `CC(=O)Nc1cn2nc(-c3cc(C(=O)NCc4ccccc4OC(F)(F)F)c(C)nc3C)ccc2n1` [Example 89, 5-{2-acetamidoimidazo[1,2-b]pyridazin-6-yl}-2,6-dimethyl-N-{[2-(trifluoro-methoxy)phenyl]methyl}pyridine-3-carboxamide], the IC50 in test [1] was determined as 38 nM; in test [2] (Homo sapiens), 88 nM.
The corresponding values for `CC(=O)Nc1cn2nc(-c3cc(C(=O)NCc4cc(F)cc(F)c4OCC4CCCC4)c(C)nc3C)ccc2n1` [Example 90, N-{[2-(cyclopentylmethoxy)-3,5-difluorophenyl]methyl}-5-{2-acetamidoimidazo[1,2-b]pyridazin-6-yl}-2,6-dimethylpyridine-3-carboxamide] are 5 nM and 3 nM.
On to `Cc1nc(C)c(-c2ccc3nc(NC(=O)CO)cn3n2)cc1C(=O)NCc1cc(F)cc(F)c1O[C@H]1CCOC1` [Example 91, N-({3,5-difluoro-2-[(3S)-oxolan-3-yloxy]phenyl}methyl)-5-[2-(2-hydroxy-acetamido)imidazo[1,2-b]pyridazin-6-yl]-2,6-dimethylpyridine-3-carboxamide, TFA], for which the IC50 is 61 nM in test [1] and 442 nM in test [2] (Homo sapiens).
